# What was measured:
# human semen (sperm) = assay: Inhibition of motility of human sperm, ~1 min, in Tyrodes T6 medium (Example 1); format: cell-based; details: about 1 minute, 25 degrees C., Tyrodes T6 + human albumin
# Protocol: (§1) Chlorhexidine, as the diacetate salt, and/or nonoxynol-9 (50 μl. of an appropriate aqueous dilution) was dissolved in Tyrodes T6 balanced salt solution supplemented with 4 mg./ml. of human albumin. The solution was prepared and used immediately, by being mixed with 50 μl. of fresh human semen with a sperm concentration of at least 50 million per ml, and a motility of at least 80%, and incubated at 25 degrees C. for about 1 minute.
# (§2) The motility of the sperm so treated was measured by one of two methods:
# (§3) (1) If the concentration of chlorhexidine caused protein precipitation, motility was estimated by phase contrast microscopy at 200× magnification in a 10 μm deep counting chamber.
# (§4) (2) If the solution remained optically clear, motility was measured by laser Doppler spectroscopy. This technique involves the analysis by auto-correlation of the fraction of the scattered laser light which contains the Doppler-shifted frequencies generated by interaction between the incident laser and the sperm head.
# sperm (semen) = assay: Spermicidal action in isotonic aqueous sucrose: % of sperm motile 1 minute after contact (Example 2); format: cell-based, human
# Protocol: as §1, §2, §3, §4
# The procedure of Example 1 was repeated, using solutions of the specified compounds (nonoxenol-9 and chlorhexidine diacetate) in an isotonic aqueous solution of sucrose, the spermicidal action of nonoxenol-9 and chlorhexidine diacetate, derived from five examinations, each being measured in duplicate. The concentrations are the final values in semen.
# The values expressed are the percentages, expressed as a mean, of the sperm which are motile 1 minute after contact with the spermicide.
# [1] = Stability of spermicidal activity of chlorhexidine / composition in solution; format: physicochemical
# sperm = assay: Site of spermicidal action (vagina, cervical mucus); details: vagina and cervical mucus; no test described
Molecule,% Inhibition of motility (human semen (sperm); 0.5 mg./ml.),"inhibition at 2000 µg/mL (human semen (sperm); Sperm, 1 min, 2 mg./ml.) [%]","percentage of the sperm which are motile 1 minute after contact (mean) (sperm (semen); Chlorhexidine 0.5 mg/ml, nonoxynol-9 0, untreated 50.37) [%]","percentage of the sperm which are motile 1 minute after contact (mean) (sperm (semen); Chlorhexidine 1.0 mg/ml, nonoxynol-9 0, untreated 50.37) [%]","percentage of the sperm which are motile 1 minute after contact (mean) (sperm (semen); Chlorhexidine 2.0 mg/ml, nonoxynol-9 0, untreated 50.37) [%]","percentage of the sperm which are motile 1 minute after contact (mean) (sperm (semen); Chlorhexidine 5.0 mg/ml, nonoxynol-9 0, untreated 50.37) [%]",loss of spermicidal activity ([1]; chloride ion at physiological concentrations),"tendency to lose spermicidal activity ([1]; in some circumstances and formulations, associated with certain anions)",stability of aqueous solution ([1]; isotonic aqueous sucrose solution),site of spermicidal action (sperm),% Inhibition of motility (human semen (sperm); 2 mg./ml.) [%],"percentage of the sperm which are motile 1 minute after contact (mean) (sperm (semen); Nonoxynol-9 0.2 mg/ml, chlorhexidine 0, untreated 50.37) [%]","percentage of the sperm which are motile 1 minute after contact (mean) (sperm (semen); Nonoxynol-9 0.4 mg/ml, chlorhexidine 0, untreated 50.37) [%]","percentage of the sperm which are motile 1 minute after contact (mean) (sperm (semen); Nonoxynol-9 0.6 mg/ml, chlorhexidine 0, untreated 50.37) [%]"
"[H]/N=C(\N/C(=N/[H])NCCCCCCNC(=N)NC(=N)Nc1ccc(Cl)cc1)Nc1ccc(Cl)cc1 [Chlorhexidine, 1:6-di-(N-p-chlorophenyl-diguanido)-hexane]",ZERO,5,39.32,16.14,10.02,0,lose its spermicidal activity in less than two hours,marked tendency to lose its spermicidal activity,remained stable for greater than three days,acts as a spermicide both in the vagina and in the cervical mucus,–,–,–,–
Nonoxynol-9,ZERO,–,–,–,–,–,–,–,–,only spermicidal in the vagina and does not enter the cervical mucus,100,31.09,0,0

# Source: patent US5013544A, “Contraceptive methods and compositions” (The Victoria University of Manchester, priority 1988, dated 1991)
